Results taken from patent US10681909B2, “Herbicidal triazoles” (FMC Corporation, priority 2014, dated 2020).

How the values were obtained:
crabgrass, large = assay: Test C preemergence; assay type: in vivo, Digitaria sanguinalis; details: for Plant response rating (scale of 0 to 100 where 0 is no effect and 100 is complete control): Crabgrass, Large, preemergence; for Crabgrass, Large plant response rating (0 to 100): Preemergence, visual rating after 13 to 15 d
Source text: (§1) Seeds of plant species selected from blackgrass (Alopecurus myosuroides), ryegrass, Italian (Italian ryegrass, Lolium multiflorum), wheat (winter wheat, Triticum aestivum), galium (catchweed bedstraw, Galium aparine), corn (Zea mays), crabgrass, large (large crabgrass, Digitaria sanguinalis), foxtail, giant, (giant foxtail, Setaria faberii), johnsongrass (Sorghum halepense), lambsquarters (Chenopodium album), morningglory (Ipomoea coccinea), nutsedge, yellow (yellow nutsedge, Cyperus esculentus), pigweed (Amaranthus retroflexus), ragweed (common ragweed, Ambrosia elatior), soybean (Glycine max), barnyardgrass (Echinochloa crus-galli), oilseed rape (Brassica napus), waterhemp (common waterhemp, Amaranthus rudis), and velvetleaf (Abutilon theophrasti) were planted into a blend of loam soil and sand and treated preemergence with test chemicals formulated in a non-phytotoxic solvent mixture which included a surfactant. At the same time, plants selected from these crop and weed species and also chickweed (common chickweed, Stellaria media), oat, wild (wild oat, Avena fatua), and kochia (Kochia scoparia), were planted in pots containing Sunshine Redi-Earth® planting medium comprising spaghnum peat moss, vermiculite, starter nutrients and dolomitic limestone and treated with postemergence applications of test chemicals formulated in the same manner. Plants ranged in height from 2 to 18 cm (1- to 4-leaf stage) for postemergence treatments. […] A dash (-) response means no test result.

blackgrass = assay: Test C postemergence; assay type: in vivo, Alopecurus myosuroides
Source text: as §1

foxtail, giant = assay: Test C postemergence; assay type: in vivo, Setaria faberii
Source text: as §1

johnsongrass = assay: Test C postemergence; assay type: in vivo, Sorghum halepense
Source text: as §1

morningglory = assay: Test C postemergence; assay type: in vivo, Ipomoea coccinea
Source text: as §1

ragweed = assay: Test C postemergence; assay type: in vivo, Ambrosia elatior
Source text: as §1

barnyardgrass [1] = assay: Test C postemergence; assay type: in vivo, Echinochloa crus-galli
Source text: as §1

chickweed = assay: Test C postemergence; assay type: in vivo, Stellaria media
Source text: as §1

oat, wild = assay: Test C postemergence; assay type: in vivo, Avena fatua
Source text: as §1

kochia = assay: Test C postemergence; assay type: in vivo, Kochia scoparia
Source text: as §1

sedge, umbrella = assay: Test B flooded paddy test; assay type: in vivo, Cyperus difformis; details: 250 g ai/ha, applied to paddy water at 2-leaf stage, visual rating after 13 to 15 d, scale 0 (no effect) to 100 (complete control)
How it was run: (§2)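 Pots were flooded to 3 cm above the soil at treatment, and compounds were applied directly into the paddy water. That depth was held throughout. After 13 to 15 d in a greenhouse, plants were rated visually against untreated controls.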

ducksalad = assay: Test B flooded paddy test; assay type: in vivo, Heteranthera limosa; details: 250 g ai/ha, applied to paddy water at 2-leaf stage, visual rating after 13 to 15 d, scale 0 (no effect) to 100 (complete control)
How it was run: as §2

barnyardgrass [2] = assay: Test B flooded paddy test; assay type: in vivo, Echinochloa crus-galli; details: 250 g ai/ha, applied to paddy water at 2-leaf stage, visual rating after 13 to 15 d, scale 0 (no effect) to 100 (complete control)
How it was run: as §2

Row | Compound | Plant response rating (scale of 0 to 100 where 0 is no effect and 100 is complete control) (blackgrass; 31 g ai/ha) | Plant response rating (scale of 0 to 100 where 0 is no effect and 100 is complete control) (blackgrass; 62 g ai/ha) | Plant response rating (scale of 0 to 100 where 0 is no effect and 100 is complete control) (blackgrass; 125 g ai/ha) | Plant response rating (scale of 0 to 100 where 0 is no effect and 100 is complete control) (foxtail, giant; 31 g ai/ha) | Plant response rating (scale of 0 to 100 where 0 is no effect and 100 is complete control) (foxtail, giant; 62 g ai/ha) | Plant response rating (scale of 0 to 100 where 0 is no effect and 100 is complete control) (foxtail, giant; 125 g ai/ha) | Plant response rating (scale of 0 to 100 where 0 is no effect and 100 is complete control) (johnsongrass; 31 g ai/ha) | Plant response rating (scale of 0 to 100 where 0 is no effect and 100 is complete control) (johnsongrass; 62 g ai/ha) | Plant response rating (scale of 0 to 100 where 0 is no effect and 100 is complete control) (johnsongrass; 125 g ai/ha) | Plant response rating (scale of 0 to 100 where 0 is no effect and 100 is complete control) (morningglory; 31 g ai/ha) | Plant response rating (scale of 0 to 100 where 0 is no effect and 100 is complete control) (morningglory; 62 g ai/ha) | Plant response rating (scale of 0 to 100 where 0 is no effect and 100 is complete control) (morningglory; 125 g ai/ha) | Plant response rating (scale of 0 to 100 where 0 is no effect and 100 is complete control) (ragweed; 31 g ai/ha) | Plant response rating (scale of 0 to 100 where 0 is no effect and 100 is complete control) (ragweed; 62 g ai/ha) | Plant response rating (scale of 0 to 100 where 0 is no effect and 100 is complete control) (ragweed; 125 g ai/ha) | Plant response rating (scale of 0 to 100 where 0 is no effect and 100 is complete control) (barnyardgrass [1]; 31 g ai/ha) | Plant response rating (scale of 0 to 100 where 0 is no effect and 100 is complete control) (barnyardgrass [1]; 62 g ai/ha) | Plant response rating (scale of 0 to 100 where 0 is no effect and 100 is complete control) (barnyardgrass [1]; 125 g ai/ha) | Plant response rating (scale of 0 to 100 where 0 is no effect and 100 is complete control) (chickweed; 31 g ai/ha) | Plant response rating (scale of 0 to 100 where 0 is no effect and 100 is complete control) (chickweed; 62 g ai/ha) | also measured
1 | CCOc1nc(-c2ccc(C(F)(F)F)cc2)nn1Cc1ccnc(C(F)(F)F)c1 [Compound 35, 4-[[5-ethoxy-3-[4-(trifluoromethyl)phenyl]-1H-1,2,4-triazole-1-yl]methyl]-2-(trifluoromethyl)pyridine] | 65 | 70 | 85 | 25 | 40 | 70 | 75 | 85 | 95 | 70 | 95 | 85 | 65 | 75 | 80 | 30 | 45 | 60 | 100 | 100 | Plant response rating (scale of 0 to 100 where 0 is no effect and 100 is complete control) (crabgrass, large; 125 g ai/ha): 100; Plant response rating (scale of 0 to 100 where 0 is no effect and 100 is complete control) (crabgrass, large; 250 g ai/ha): 100; Crabgrass, Large plant response rating (0 to 100) (crabgrass, large; 31 g ai/ha): 100; Crabgrass, Large plant response rating (0 to 100) (crabgrass, large; 62 g ai/ha): 100; Plant response rating (scale of 0 to 100 where 0 is no effect and 100 is complete control) (blackgrass; 250 g ai/ha): 85; Plant response rating (scale of 0 to 100 where 0 is no effect and 100 is complete control) (foxtail, giant; 250 g ai/ha): 85; Plant response rating (scale of 0 to 100 where 0 is no effect and 100 is complete control) (johnsongrass; 250 g ai/ha): 100; Plant response rating (scale of 0 to 100 where 0 is no effect and 100 is complete control) (morningglory; 250 g ai/ha): 95; Plant response rating (scale of 0 to 100 where 0 is no effect and 100 is complete control) (ragweed; 250 g ai/ha): 85; Plant response rating (scale of 0 to 100 where 0 is no effect and 100 is complete control) (barnyardgrass [1]; 250 g ai/ha): 85; Plant response rating (scale of 0 to 100 where 0 is no effect and 100 is complete control) (chickweed; 125 g ai/ha): 100; Plant response rating (scale of 0 to 100 where 0 is no effect and 100 is complete control) (chickweed; 250 g ai/ha): 100; Plant response rating (scale of 0 to 100 where 0 is no effect and 100 is complete control) (oat, wild; 31 g ai/ha): 45; Plant response rating (scale of 0 to 100 where 0 is no effect and 100 is complete control) (oat, wild; 62 g ai/ha): 50; Plant response rating (scale of 0 to 100 where 0 is no effect and 100 is complete control) (oat, wild; 125 g ai/ha): 85; Plant response rating (scale of 0 to 100 where 0 is no effect and 100 is complete control) (oat, wild; 250 g ai/ha): 90; Plant response rating (scale of 0 to 100 where 0 is no effect and 100 is complete control) (kochia; 31 g ai/ha): 90; Plant response rating (scale of 0 to 100 where 0 is no effect and 100 is complete control) (kochia; 62 g ai/ha): 90; Plant response rating (scale of 0 to 100 where 0 is no effect and 100 is complete control) (kochia; 125 g ai/ha): 90; Plant response rating (scale of 0 to 100 where 0 is no effect and 100 is complete control) (kochia; 250 g ai/ha): 90
2 | CCOc1nc(-c2ccc(Cl)cc2)nn1Cc1ccnc(C(F)(F)F)c1 [Compound 26] | 35 | 40 | 40 | 20 | 25 | 40 | 20 | 35 | 55 | 90 | 75 | 85 | 90 | 70 | 85 | 30 | 45 | 55 | 95 | 95 | Plant response rating, Sedge, Umbrella, Flood (sedge, umbrella): 90; Plant response rating, Ducksalad, Flood (ducksalad): 70; Plant response rating, Barnyardgrass, Flood (barnyardgrass [2]): 50; Plant response rating (scale of 0 to 100 where 0 is no effect and 100 is complete control) (blackgrass; 16 g ai/ha): 15; Plant response rating (scale of 0 to 100 where 0 is no effect and 100 is complete control) (foxtail, giant; 16 g ai/ha): 10; Plant response rating (scale of 0 to 100 where 0 is no effect and 100 is complete control) (johnsongrass; 16 g ai/ha): 25; Plant response rating (scale of 0 to 100 where 0 is no effect and 100 is complete control) (morningglory; 16 g ai/ha): 90; Plant response rating (scale of 0 to 100 where 0 is no effect and 100 is complete control) (ragweed; 16 g ai/ha): 85; Plant response rating (scale of 0 to 100 where 0 is no effect and 100 is complete control) (barnyardgrass [1]; 16 g ai/ha): 25; Plant response rating (scale of 0 to 100 where 0 is no effect and 100 is complete control) (chickweed; 16 g ai/ha): 90; Plant response rating (scale of 0 to 100 where 0 is no effect and 100 is complete control) (chickweed; 125 g ai/ha): 95; Plant response rating (scale of 0 to 100 where 0 is no effect and 100 is complete control) (oat, wild; 16 g ai/ha): 35; Plant response rating (scale of 0 to 100 where 0 is no effect and 100 is complete control) (oat, wild; 31 g ai/ha): 35; Plant response rating (scale of 0 to 100 where 0 is no effect and 100 is complete control) (oat, wild; 62 g ai/ha): 40; Plant response rating (scale of 0 to 100 where 0 is no effect and 100 is complete control) (oat, wild; 125 g ai/ha): 45; Plant response rating (scale of 0 to 100 where 0 is no effect and 100 is complete control) (kochia; 16 g ai/ha): 85; Plant response rating (scale of 0 to 100 where 0 is no effect and 100 is complete control) (kochia; 31 g ai/ha): 90; Plant response rating (scale of 0 to 100 where 0 is no effect and 100 is complete control) (kochia; 62 g ai/ha): 90; Plant response rating (scale of 0 to 100 where 0 is no effect and 100 is complete control) (kochia; 125 g ai/ha): 90
3 | COc1nc(-c2ccc(C(F)(F)F)cc2)nn1Cc1ccnc(C(F)(F)F)c1 [Compound 25] | 5 | 10 | 30 | 10 | 20 | 20 | 10 | 20 | 20 | 90 | 85 | 75 | 65 | 80 | 75 | 20 | 25 | 35 | 50 | 90 | Plant response rating, Sedge, Umbrella, Flood (sedge, umbrella): 95; Plant response rating, Ducksalad, Flood (ducksalad): 20; Plant response rating, Barnyardgrass, Flood (barnyardgrass [2]): 35; Plant response rating (scale of 0 to 100 where 0 is no effect and 100 is complete control) (blackgrass; 250 g ai/ha): 60; Plant response rating (scale of 0 to 100 where 0 is no effect and 100 is complete control) (foxtail, giant; 250 g ai/ha): 35; Plant response rating (scale of 0 to 100 where 0 is no effect and 100 is complete control) (johnsongrass; 250 g ai/ha): 30; Plant response rating (scale of 0 to 100 where 0 is no effect and 100 is complete control) (morningglory; 250 g ai/ha): 95; Plant response rating (scale of 0 to 100 where 0 is no effect and 100 is complete control) (ragweed; 250 g ai/ha): 85; Plant response rating (scale of 0 to 100 where 0 is no effect and 100 is complete control) (barnyardgrass [1]; 250 g ai/ha): 35; Plant response rating (scale of 0 to 100 where 0 is no effect and 100 is complete control) (chickweed; 125 g ai/ha): 85; Plant response rating (scale of 0 to 100 where 0 is no effect and 100 is complete control) (chickweed; 250 g ai/ha): 100; Plant response rating (scale of 0 to 100 where 0 is no effect and 100 is complete control) (oat, wild; 31 g ai/ha): 10; Plant response rating (scale of 0 to 100 where 0 is no effect and 100 is complete control) (oat, wild; 62 g ai/ha): 20; Plant response rating (scale of 0 to 100 where 0 is no effect and 100 is complete control) (oat, wild; 125 g ai/ha): 25; Plant response rating (scale of 0 to 100 where 0 is no effect and 100 is complete control) (oat, wild; 250 g ai/ha): 35; Plant response rating (scale of 0 to 100 where 0 is no effect and 100 is complete control) (kochia; 31 g ai/ha): 90; Plant response rating (scale of 0 to 100 where 0 is no effect and 100 is complete control) (kochia; 62 g ai/ha): 90; Plant response rating (scale of 0 to 100 where 0 is no effect and 100 is complete control) (kochia; 125 g ai/ha): 90; Plant response rating (scale of 0 to 100 where 0 is no effect and 100 is complete control) (kochia; 250 g ai/ha): 95
